From US9668985B2, “Pterosin derivative-containing therapeutic preparation for disease associated with cartilage loss, cartilage degeneration and/or cartilage thinning” (KYOTO UNIVERSITY, priority 2013, dated 2017)
Entries after “also recorded” stand apart in the source; their conditions may differ. Each block holds one compound with its values, some of them ahead of it.

Columns and labels:
SIK3 = SIK3 (Homo sapiens, UniProt Q9Y2K2); test: CRTC2 activity as a measure of SIK3 inhibitory activity; type: cell-based; settings: 150 μM
Procedure: Comparative evaluation of pterosin derivatives was performed in terms of the inhibitory effect on SIK3 signaling. As a measure of the SIK3 inhibitory activity, the induced activity of the transcription coupling factor CRTC2 (which is also referred to as TORC2, serves as a coupling factor of the transcription factor CREB, and is an inhibition target of SIK3) was measured according to the method described in PCT/JP2012/063709.

human chondrocytes [1] = test: safranin O staining of pellet-cultured human primary chondrocytes; type: cell-based; settings: 300 μM, on and after 14 days (14 or 28 days)
Procedure: (§1) Chondrocytes collected from a person with medial compartmental idiopathic osteonecrosis under informed consent were cultured in DMEM (Dulbecco's Modified Eagle's Medium) supplemented with 10% fetal calf serum for 7 days (an image of a 3-day culture is shown in FIG. 5A), and then pelletized by centrifugation (FIG. 5A). The human chondrocyte pellet was cultured in DMEM supplemented with 10% fetal calf serum and 300 μM of the extracted pterosin B for 14 or 28 days. The cell pellet was collected and then stained with safranin O. As a result, it was shown that the staining intensity in the presence of the extracted pterosin B was increased on and after 14 days from the addition of the extracted pterosin B (FIG. 5B). In addition, the mRNA amounts of COL2A1, COL11A2, ACAN, SOX9, COL10A1 and COL1A1 relative to GAPDH in the cell pellet were measured by quantitative RT-PCR. As a result, the mRNA amounts of COL2A1, COL11A2, ACAN and SOX9 were increased by the addition of the […] pterosin B, while the mRNA amounts of COL10A1 and COL1A1 were decreased by the addition of the extracted pterosin B (FIG. 6). […] Therefore, pterosin B is considered to have the effect of promoting hyaline cartilage growth in humans as well.

[2] = system: mouse primary chondrocytes; test: safranin O staining of pellet-cultured mouse primary chondrocytes; type: cell-based; settings: cell pellet, 100, 200 or 300 μM, 28 days after addition
Procedure: (§2) Primary chondrocytes obtained from the distal femoral epiphyseal cartilage and the proximal tibial epiphyseal cartilage of 1- to 5-day-old mice were pelletized by centrifugation, and to the cell pellet, the extracted pterosin B at a given concentration (0 μM (only DMSO as a vehicle), 100 μM, 200 μM or 300 μM) was added in DMEM supplemented with 10% fetal calf serum. […] In addition, the mRNA amounts of Col2a1, Col10a1 and Sik3 relative to Gapdh in the cell pellet were measured by quantitative RT-PCR. […] Col2a1 is a gene relevant to […], and Col10a1 is a gene indicative of hypertrophic differentiation of chondrocytes.

[3] = system: articular cartilage on the medial femoral epicondyle; test: intra-articular administration into the knee of C57BL/6 mice, articular cartilage histology; type: in vivo, mouse; settings: 3 times a week, 4 weeks
Text: After the administration was continued for 4 weeks, the knee joint was dissected and then stained with safranin O/fast green/iron hematoxylin.

human chondrocytes [4] = test: quantitative RT-PCR in pellet-cultured human primary chondrocytes; type: cell-based; settings: 300 μM, pellet culture 2 weeks
Procedure: as §1

[5] = system: embryonic mouse metatarsal bone; test: tissue culture of embryonic mouse metatarsal bone, safranin O, BrdU and Col10a1 staining; type: cell-based; settings: 300 μM, 7 days
Procedure: The metatarsal bone was isolated from a mouse embryo of E15.5, and tissue culture of the bone was performed in DMEM supplemented with 10% fetal calf serum. To the culture medium, 300 μM of the extracted pterosin B or the synthesized pterosin B was added, and the culture was further continued. Seven days later, the metatarsal bone was collected and its histological sections were prepared. At 8 hours before the collection of the metatarsal bone, BrdU was added to the culture medium. The histological sections of the metatarsal bone were stained with safranin O and immunostained with an anti-BrdU antibody. As a result, it was shown that, in the presence of the extracted pterosin B or the synthesized pterosin B, the safranin O-stained area and the BrdU-positive cell number were increased (FIGS. 2 and 3). Meanwhile, the number of hypertrophic chondrocytes was decreased in the presence of the extracted pterosin B or the synthesized pterosin B (FIG. 4).

[6] = system: mouse primary chondrocytes; test: quantitative RT-PCR in pellet-cultured mouse primary chondrocytes; type: cell-based; settings: for mRNA amount of Col10a1 relative to Gapdh: cell pellet, 300 μM, 2 or 4 weeks after addition
Procedure: as §2
In the same manner as in Example 1, primary chondrocytes obtained from 1- to 5-day-old mice were pelletized, and to the cell pellet, a pterosin derivative (synthesized pterosin B or pterosin Z) at 300 μM was added in DMEM supplemented with 10% fetal calf serum. At 2 or 4 weeks after the addition, the cell pellet was collected and the mRNA amount of Col10a1 relative to Gapdh was measured by quantitative RT-PCR. As a result, it was shown that Col10a1 was decreased by the addition of pterosin Z as well as the addition of the synthesized pterosin B (FIG. 9).

[7] = cell pellet, 100, 200 or 300 μM, 28 days

SIK3, sequence (Q9Y2K2 whole entry, species assumed): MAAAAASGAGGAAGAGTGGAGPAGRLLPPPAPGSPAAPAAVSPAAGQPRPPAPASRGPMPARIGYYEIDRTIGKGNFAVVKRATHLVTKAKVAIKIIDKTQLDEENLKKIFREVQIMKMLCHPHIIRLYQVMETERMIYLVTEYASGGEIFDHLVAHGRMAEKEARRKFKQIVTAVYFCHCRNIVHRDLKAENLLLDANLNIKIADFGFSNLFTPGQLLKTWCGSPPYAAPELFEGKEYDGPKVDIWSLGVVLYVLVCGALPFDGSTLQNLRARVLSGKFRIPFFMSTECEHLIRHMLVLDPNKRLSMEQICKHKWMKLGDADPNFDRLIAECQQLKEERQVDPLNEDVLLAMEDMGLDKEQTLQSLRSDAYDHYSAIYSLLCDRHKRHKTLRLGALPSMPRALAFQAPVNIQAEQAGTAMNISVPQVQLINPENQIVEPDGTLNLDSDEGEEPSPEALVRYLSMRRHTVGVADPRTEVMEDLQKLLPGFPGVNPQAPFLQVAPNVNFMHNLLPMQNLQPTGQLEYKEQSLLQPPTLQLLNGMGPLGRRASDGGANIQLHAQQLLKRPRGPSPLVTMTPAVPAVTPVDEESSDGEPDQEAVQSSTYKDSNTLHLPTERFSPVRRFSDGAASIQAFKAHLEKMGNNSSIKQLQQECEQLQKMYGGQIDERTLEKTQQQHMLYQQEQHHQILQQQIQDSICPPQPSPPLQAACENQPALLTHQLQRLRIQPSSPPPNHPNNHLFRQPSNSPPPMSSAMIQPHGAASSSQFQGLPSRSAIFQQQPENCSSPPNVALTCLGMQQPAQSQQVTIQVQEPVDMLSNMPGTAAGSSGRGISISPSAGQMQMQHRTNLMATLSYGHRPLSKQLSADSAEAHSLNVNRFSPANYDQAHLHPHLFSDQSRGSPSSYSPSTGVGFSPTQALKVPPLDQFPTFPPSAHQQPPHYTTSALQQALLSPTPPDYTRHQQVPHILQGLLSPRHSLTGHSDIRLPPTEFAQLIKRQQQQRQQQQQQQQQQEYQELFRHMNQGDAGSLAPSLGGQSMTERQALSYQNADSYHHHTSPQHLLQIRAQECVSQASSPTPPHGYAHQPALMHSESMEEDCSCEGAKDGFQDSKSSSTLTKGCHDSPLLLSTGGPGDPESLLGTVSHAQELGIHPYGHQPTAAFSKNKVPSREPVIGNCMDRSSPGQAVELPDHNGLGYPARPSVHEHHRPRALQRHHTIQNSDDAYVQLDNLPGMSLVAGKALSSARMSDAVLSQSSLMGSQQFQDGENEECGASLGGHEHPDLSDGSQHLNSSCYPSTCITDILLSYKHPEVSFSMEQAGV

SIK3 inhibitory activity (induced activity of CRTC2) (SIK3): highly active than pterosin B
SMILES: COCCc1c(C)c(O)c2c(c1C)C(=O)C(C)(C)C2 [14-O-methyl-onitin, 14-O-methylonitin]

SIK3 inhibitory activity (induced activity of CRTC2) (SIK3): highly active than pterosin B
SMILES: COCCc1c(C)cc2c(c1C)C(=O)C(OC)C2 (stereo not shown) [14-O-methyl-pterosin G, 14-O-methylpterosin G]

SMILES: Cc1c(O)c2c(c(C)c1CCCl)C(=O)C(C)(C)C2 [14-chloro-onitin, 14-deoxy-14-chloroonitin]
SIK3 inhibitory activity (induced activity of CRTC2) (SIK3): highly active than pterosin B

SMILES: Cc1cc2c(c(C)c1CCO)C(=O)C(C)C2 (stereo not shown) [extracted pterosin B, pterosin B]
safranin O staining intensity (human chondrocytes [1]): increased | safranin O staining intensity [2]: increased with increasing concentration | Findings of medial femoral epicondyle ([3]; 300 μM into left knee articular cavity, one line per mouse (No. 4-7)): No apparent abnormalities; also recorded: Moderate osteoarthritis | Findings of medial femoral epicondyle ([3]; 900 μM into left knee articular cavity, one line per mouse (No. 8-11)): No apparent abnormalities; also recorded: Moderate osteoarthritis | mRNA amount of COL1A1 relative to GAPDH (human chondrocytes [4]): decreased | mRNA amount of COL10A1 relative to GAPDH (human chondrocytes [4]): decreased | number of hypertrophic chondrocytes [5]: decreased | safranin O-stained area [5]: increased | BrdU-positive cell number ([5]; BrdU 8 hours before collection): increased | amount of Col2a1 mRNA relative to Gapdh [6, 7]: increased with increasing concentration | amount of Col10a1 mRNA relative to Gapdh [6, 7]: decreased with increasing concentration

SIK3 inhibitory activity (induced activity of CRTC2) (SIK3): highly active than pterosin B
SMILES: Cc1c(O)c2c(c(C)c1CCO)C(=O)C(C)(C)C2 [onitin]

SMILES: Cc1cc2c(c(C)c1CCO)C(=O)C(C)C2 (stereo not shown) [pterosin B]
SIK3 inhibitory activity (induced activity of CRTC2) (SIK3): slightly inhibit | area of the articular cartilage on the medial femoral epicondyle ([3]; 300 μM or 900 μM intra-articular): increased with increasing concentration

SIK3 inhibitory activity (induced activity of CRTC2) (SIK3): highly active than pterosin B
SMILES: COCCc1c(C)cc2c(c1C)C(=O)C(C)(C)C2 [pterosin I]

SMILES: Cc1cc2c(c(C)c1CCO)C(=O)C(C)(C)C2 [pterosin Z]
SIK3 inhibitory activity (induced activity of CRTC2) (SIK3): highly active than pterosin B | mRNA amount of Col10a1 relative to Gapdh [6]: decreased

SMILES: Cc1cc2c(c(C)c1CCO)C(=O)C(C)C2 (stereo not shown) [synthesized pterosin B, pterosin B]
mRNA amount of ACAN relative to GAPDH (human chondrocytes [4]): increased | mRNA amount of COL2A1 relative to GAPDH (human chondrocytes [4]): increased | mRNA amount of COL11A2 relative to GAPDH (human chondrocytes [4]): increased | mRNA amount of SOX9 relative to GAPDH (human chondrocytes [4]): increased | mRNA amount of Col10a1 relative to Gapdh [6]: decreased
